The values that follow come from US20100062939A1, “Herbicide/Safener Combination Comprising Dimethoxytriazinyl-Substituted Difluoromethanesulfonylanilides” (BAYER CROPSCIENCE AG, priority 2008, published 2010).

What all share (format): in vivo
The test system of test [1] is corn (cultivar: Oldham). Briefly: Crop plant compatibility, post-emergence, corn. The following applies: 17 DAT, individual compound, component A 20 g of ai/ha, no safener. The protocol:
(§1) Seeds of crop plants were placed in sandy loam and then covered with soil. The pots were placed in a greenhouse and kept under good growth conditions for the crop plants. Two weeks after sowing, the test plants were treated at the 1-3 leaf stage. The active compounds of components (A) and (B), formulated in the form of wettable powders, were then sprayed as aqueous suspensions at various dosages onto the green parts of the plants, using an application rate of 300 l of water/ha (converted).
(§2) The visual scoring of the herbicidal effects in the combination with or without safener was carried out after the number of days stated in the tables (DAT=days after treatment). Scoring was carried out in percent in comparison to the untreated control plants (herbicidal activity in %). 0%=no herbicidal activity, 100%=complete herbicidal activity=complete kill.
(§3) The safener action was calculated by comparing the herbicidal activity in % of the herbicide combination without (individual compound) and with safener (combination). The difference of the herbicidal activity in % between the individual compound and the combination was then calculated in percent (safener action in %): 0%=no improvement by addition of safener, 100%=complete improvement by addition of safener=maximum crop plant compatibility.

Test [2] concerns wheat (cultivar: Triso). As to the kind of experiment: Crop plant compatibility, post-emergence, wheat. The following applies: individual compound, no safener. The protocol:
as §1, §2, §3

The test system of test [3] is rice (cultivar: Rice Ballila). Briefly: Crop plant compatibility, post-emergence, rice. The following applies: individual compound, no safener. The protocol:
as §1, §2, §3

Test [4] has as its system barley (cultivar: Adonis). As to the kind of experiment: Crop plant compatibility, post-emergence, barley. The note with it: 17 DAT, individual compound, no safener. The protocol: as §1, §2, §3
[5] abbreviates: 17 DAT, component A 20 g of ai/ha.

With `COc1nc(OC)nc(C(O)c2cccc(F)c2NS(=O)(=O)C(F)F)n1` (centres unmarked) [compound (A-3)], the “Herbicidal activity in %” value in test [1] was found to be 30%; in test [2] (10 DAT, component A 6.7 g of ai/ha) it was 5%; in test [2] (17 DAT, component A 2.2 g of ai/ha), 8%; in test [2] (setting [5]), 20%; in test [3] (10 DAT, component A 2.2 g of ai/ha), 30%; in test [3] (setting [5]), 50%. Moreover, the entries for the “Herbicidal activity in %” value in test [4] (component A 6.7 g of ai/ha) and in test [4] (component A 20 g of ai/ha) were 10% and 20%, respectively.
